Test results as given in US11623919B2, “Heterocyclic P2X7 antagonists” (AXXAM S.P.A., priority 2017, dated 2023).
pIC50: −log10 of the molar value.

Tests used:
Assay type in all cases: cell-based
P2X7 receptor [1] = target: T1, P2X7 receptor (Mus musculus, UniProt Q9Z1M0); test: Screen Quest Fluo-8 No Wash Calcium Assay (Bz-ATP evoked Ca2+ influx, FLIPR); conditions: mP2X7; HEK-293 cells stably transfected with P2X7 receptor, Bz-ATP at EC80, Fluo-8 NW; potency ranges A-D
T1 construct: mP2X7 (IC50; nM); other: mP2X7; HEK-293 cells stably transfected with P2X7 receptor, Bz-ATP at EC80, Fluo-8 NW; potency
T1 sequence (Q9Z1M0 1-595): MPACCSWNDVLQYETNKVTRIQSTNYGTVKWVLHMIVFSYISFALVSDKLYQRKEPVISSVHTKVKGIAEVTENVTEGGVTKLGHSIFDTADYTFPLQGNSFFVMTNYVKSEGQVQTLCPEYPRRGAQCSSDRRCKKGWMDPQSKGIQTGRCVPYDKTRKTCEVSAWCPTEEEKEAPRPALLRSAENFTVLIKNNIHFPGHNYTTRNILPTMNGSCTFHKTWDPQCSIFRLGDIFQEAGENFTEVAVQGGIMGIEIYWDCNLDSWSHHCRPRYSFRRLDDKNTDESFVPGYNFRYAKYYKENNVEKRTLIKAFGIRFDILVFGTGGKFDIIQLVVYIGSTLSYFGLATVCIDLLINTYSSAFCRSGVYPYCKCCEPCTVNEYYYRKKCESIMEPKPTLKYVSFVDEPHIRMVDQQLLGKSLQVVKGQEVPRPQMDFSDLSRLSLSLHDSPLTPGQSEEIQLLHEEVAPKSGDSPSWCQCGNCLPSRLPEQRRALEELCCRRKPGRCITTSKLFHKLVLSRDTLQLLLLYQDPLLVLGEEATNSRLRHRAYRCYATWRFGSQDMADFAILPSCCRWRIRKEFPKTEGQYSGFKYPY
How it was run: (§1)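 HEK-293 cells stably expressing P2X7 were loaded with Fluo-8 NW for 1 h at RT, then given compound, and 5 min later Bz-ATP at EC80. Fluorescence was read by FLIPR in low divalent cation buffer (0.3 mM Ca2+, 0 mM Mg2+). IC50 came from percent inhibition relative to reference antagonist A438079.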

P2X7 receptor [2] = target: T2, P2X7 receptor (Rattus norvegicus, UniProt Q64663); test: as above; conditions: rP2X7; HEK-293 cells stably transfected with P2X7 receptor, Bz-ATP at EC80, Fluo-8 NW; potency ranges A-D
T2 construct: rP2X7 (IC50; nM); other: rP2X7; HEK-293 cells stably transfected with P2X7 receptor, Bz-ATP at EC80, Fluo-8 NW; potency
T2 sequence (Q64663 1-595): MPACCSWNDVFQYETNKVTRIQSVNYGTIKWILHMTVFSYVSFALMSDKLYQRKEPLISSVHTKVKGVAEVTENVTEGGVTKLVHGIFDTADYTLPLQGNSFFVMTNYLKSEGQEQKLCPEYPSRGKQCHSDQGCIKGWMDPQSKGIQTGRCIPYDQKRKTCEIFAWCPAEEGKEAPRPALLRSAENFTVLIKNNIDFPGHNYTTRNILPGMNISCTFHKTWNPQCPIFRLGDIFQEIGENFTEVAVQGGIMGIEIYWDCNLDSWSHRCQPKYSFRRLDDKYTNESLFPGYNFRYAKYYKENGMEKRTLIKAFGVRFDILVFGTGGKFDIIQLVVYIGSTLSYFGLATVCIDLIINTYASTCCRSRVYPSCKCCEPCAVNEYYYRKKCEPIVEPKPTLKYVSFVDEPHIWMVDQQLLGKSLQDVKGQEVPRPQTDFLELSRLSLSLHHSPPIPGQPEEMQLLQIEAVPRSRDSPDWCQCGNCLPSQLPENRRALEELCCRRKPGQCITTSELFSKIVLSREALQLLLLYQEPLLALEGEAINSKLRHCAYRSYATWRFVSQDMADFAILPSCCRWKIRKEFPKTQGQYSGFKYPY
How it was run: as §1

P2X7 receptor [3] = target: T3, P2X7 receptor (Homo sapiens, UniProt Q99572); test: as above; set-up: hP2X7 (IC50; nM); other: hP2X7; HEK-293 cells stably transfected with P2X7 receptor, Bz-ATP at EC80, Fluo-8 NW; potency; conditions: hP2X7; HEK-293 cells stably transfected with P2X7 receptor, Bz-ATP at EC80, Fluo-8 NW; potency ranges A-D
T3 sequence (Q99572 1-595): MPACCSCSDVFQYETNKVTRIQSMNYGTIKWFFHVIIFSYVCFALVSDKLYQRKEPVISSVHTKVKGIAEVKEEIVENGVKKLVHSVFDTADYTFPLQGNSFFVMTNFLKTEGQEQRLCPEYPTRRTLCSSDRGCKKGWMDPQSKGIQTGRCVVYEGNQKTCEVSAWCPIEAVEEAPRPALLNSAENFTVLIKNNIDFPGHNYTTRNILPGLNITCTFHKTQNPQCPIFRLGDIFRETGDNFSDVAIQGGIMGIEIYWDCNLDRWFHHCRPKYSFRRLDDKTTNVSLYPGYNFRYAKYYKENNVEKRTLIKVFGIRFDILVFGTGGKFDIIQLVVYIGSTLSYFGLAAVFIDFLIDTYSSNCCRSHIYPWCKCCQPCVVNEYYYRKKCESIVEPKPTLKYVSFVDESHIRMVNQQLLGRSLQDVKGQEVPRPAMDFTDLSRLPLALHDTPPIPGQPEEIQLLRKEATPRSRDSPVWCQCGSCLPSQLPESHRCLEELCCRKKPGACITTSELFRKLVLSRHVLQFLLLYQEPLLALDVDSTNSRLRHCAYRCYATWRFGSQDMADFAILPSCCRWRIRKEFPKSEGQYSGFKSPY
How it was run: as §1

P2X7 receptor [4] = target: T3, P2X7 receptor; test: Automated patch-clamp (QPatch16X) P2X7 channel assay; set-up: expressed in transfected cells; host or cells: HEK-293; conditions: HEK-293 cells expressing P2X7 channels; whole-cell, held at -80 mV; 100 microM BzATP; compound 1, 10, 100 and 1000 nM; read-out: Q-Patch (IC50)
Procedure: In order to directly monitor the block of P2X7 channel, an electrophysiological assay was developed and implemented on the QPatch16X automated electrophysiology instrument.
HEK-293 cells expressing the P2X7 channels were cultured in modified EMEM.
72 hours before experiment, 5 million cells were seeded onto T225 flasks. Just before the experiment cells were washed twice, detached from the flask with trypsin-EDTA, re-suspended in the suspension solution and placed on the QPatch 16x.
The compounds (20 mM in a 100% DMSO) stored at −20° C. were prepared the day of the experiment (a first dilution 1:20 in 100% DMSO to prepare a 1 mM stock solution, then a 1 microM solution in external solution+a serial dilution 1:10).
The standard whole-cell voltage clamp experiments were performed at room temperature. From these experiments the multihole technology was used and the data were sampled at 2 KHz.
The intracellular solution contained (mM) 135 CsF, 10 NaCl, 1 EGTA, 10 HEPES, (pH 7.2 with CsOH) whereas the extracellular contained (mM) 145 NaCl, 4 KCl, 0.5 MgCl2, 1 CaCl2, 10 HEPES, 10 Glc (pH 7.4 with NaOH).
After establishment of the seal and the passage in the whole cell configuration, the cells were held at −80 mV. The P2XR7 current was evoked by applying 100 microM of BzATP alone (4 times) and then in the presence increasing concentrations of the compound under investigation (1, 10, 100 and 1000 nM).
The pre-incubation periods 5 to 8 contain increasing concentrations of the compound of interest (1, 10, 100 and 1000 nM), as illustrated in FIGURE (application protocol).
The maximal inward current evoked by BzATP in absence or presence of increasing concentrations of the compounds under investigation was measured and normalized. The potential […] effect was measured as % of control and as IC50 determined fitting the dose-response curves data with the following equation: Y=100/(1+10^((Log IC50−X)*HillSlope))

IC50 (P2X7 receptor [1])	IC50 (P2X7 receptor [2])	IC50 (P2X7 receptor [3])	pIC50 (P2X7 receptor [4])	Structure (SMILES)
1000 to 10000 nM	200 to 1000 nM	1000 to 10000 nM	6.41	CC(c1ccccc1)n1c(Cc2c(F)cccc2Cl)noc1=O (centres unmarked) [Example 49, 3-[(2-chloro-6-fluorophenyl)methyl]-4-(1-phenylethyl)-4,5-dihydro-1,2,4-oxadiazol-5-one]
200 to 1000 nM	200 to 1000 nM	200 to 1000 nM	6.45	O=c1onc(Cc2c(F)cccc2Cl)n1Cc1cccc(Cl)c1Cl [Example 59, 3-[(2-chloro-6-fluorophenyl)methyl]-4-[(2,3-dichlorophenyl)methyl]-4,5-dihydro-1,2,4-oxadiazol-5-one]
